The values that follow come from patent US20250195521A1 (Revolution Medicines, Inc., priority 2020, published 2025).

The subject of this assay is NCI-H358 (K-Ras G12C). The assay can be described thus: CellTiter-Glo cell viability assay, NCI-H358. The assay is classed as cell-based, human. How it is done:
Determination of Cell Viability in RAS Mutant Cancer Cell Lines Protocol: CellTiter-Glo® Cell Viability Assay
Note—The following protocol describes a procedure for monitoring cell viability of K-Ras mutant cancer cell lines in response to a compound of the invention. Other RAS isoforms may be employed, though the number of cells to be seeded will vary based on cell line used.
Test compounds (132.5 nL) were directly dispensed into the assay plates containing cells. […] On day 5, assay plates and their contents were equilibrated to room temperature for approximately 30 minutes. […] Luminescence was measured using the PerkinElmer Enspire. Data were normalized by the following: (Sample signal/Avg. DMSO)*100. The data were fit using a four-parameter logistic fit.

Setting [1] is: Homo sapiens, NCI-H358, 120 h, 5-day treatment, read-out: H358 Cell Viability assay data (K-Ras G12C, IC50).
Setting [2] is: Homo sapiens, NCI-H358, 120 h, read-out: H358 Cell Viability assay data (K-Ras G12C, IC50, uM), 5-day treatment.

Where two headings read alike, the source gives them in different places. Bounds are passed on as bounds.

For `C=CC(=O)N1CC[C@H](C(=O)N(C)[C@H](C(=O)N[C@H]2Cc3cc(ccn3)-c3ccc4c(c3)c(c(-c3cccnc3COC)n4CC)CC(C)(C)COC(=O)[C@@H]3CCCN(N3)C2=O)C(C)C)C1` [Compound A136], the 50% inhibitory concentration (IC50) – broadly, the point on the concentration scale where inhibition reaches its midpoint – under setting [1] was over 10 µM.
As for `C=CC(=O)N1CC[C@H](C(=O)N(C)[C@H](C(=O)N[C@H]2Cc3cc(O)cc(c3)-c3ccc4c(c3)c(c(-c3cc(CN(C)C)cnc3COC)n4CC)CC(C)(C)COC(=O)[C@@H]3CCCN(N3)C2=O)C(C)C)C1` [Compound A149], the 50% inhibitory concentration (IC50) under setting [1] was 0.01 to 0.1 µM.
For the compound `C=CC(=O)N1CC[C@H](C(=O)N(C)[C@H](C(=O)N[C@H]2Cc3cc(O)cc(c3)-c3ccc4c(c3)c(c(-c3cccnc3)n4C3CC3)CC(C)(C)COC(=O)[C@@H]3CCCN(N3)C2=O)C(C)C)C1` [Compound A160], the IC50 under setting [1] is 0.1 to 1 µM.
As for `C=CC(=O)N1CC[C@H](C(=O)N(C)[C@H](C(=O)N[C@H]2Cc3cc(O)cc(c3)-c3ccc4c(c3)c(c(-c3cc(C)cnc3[C@H](C)OC)n4CC)CC(C)(C)COC(=O)[C@@H]3CCCN(N3)C2=O)C(C)C)C1` [Compound A167], the IC50 under setting [2] was under 0.01 µM.
For `C=CC(=O)N1CC(NC[C@H](C(=O)N[C@H]2Cc3cc(O)cc(c3)-c3ccc4c(c3)c(c(-c3cccnc3COC)n4CC)CC(C)(C)COC(=O)[C@@H]3CCCN(N3)C2=O)C(C)C)C1` [Compound A174], under setting [1], the IC50 is over 10 µM.
On to `C/C=C(\C#N)C(=O)N1CC[C@H](C(=O)N(C)[C@H](C(=O)N[C@H]2Cc3cc(O)cc(c3)-c3ccc4c(c3)c(c(-c3cccnc3COC)n4CC)CC(C)(C)COC(=O)[C@@H]3CCCN(N3)C2=O)C(C)C)C1` [Compound A178], for which, under setting [1], the half-inhibitory concentration (IC50) was over 10 µM.
Consider `C=CC(=O)N1CC[C@@H](C(=O)N(C)[C@H](C(=O)N[C@H]2Cc3cc(O)cc(c3)-c3ccc4c(c3)c(c(-c3cncnc3)n4CC)CC(C)(C)COC(=O)[C@@H]3CCCN(N3)C2=O)C(C)C)O1` [Compound A179], for which the half-maximal inhibitory concentration (IC50) under setting [1] was over 10 µM.
For `C=CC(=O)N1CC[C@H](C(=O)N(C)[C@H](C(=O)N[C@H]2Cc3cc(O)cc(c3)-c3ccc4c(c3)c(c(-c3cncnc3)n4CC)CC(C)(C)COC(=O)[C@@H]3CCCN(N3)C2=O)C(C)C)O1` [Compound A180], under setting [1], the IC50 was over 10 µM.
Take `CCn1c(-c2cccnc2[C@H](C)OC)c2c3cc(ccc31)-c1cc(O)cc(c1)C[C@H](NC(=O)[C@H](C(C)C)N(C)C(=O)[C@H]1CCN(C(=O)C#CCN3CCOCC3)C1)C(=O)N1CCC[C@H](N1)C(=O)OCC(C)(C)C2` [Compound A182]: the IC50 under setting [1] is under 0.01 µM.
As to `COCc1ncccc1-c1nc2ccc3cc2n1CC(C)(C)COC(=O)[C@@H]1CCCN(N1)C(=O)[C@@H](NC(=O)[C@H](C(C)C)N(C)C(=O)[C@H]1CCN(C(=O)C#CCN2CCOCC2)C1)Cc1cc(O)cc-3c1` [Compound A188], the concentration for half-maximal inhibition (IC50) under setting [1] is over 10 µM.
As to `CCn1c(-c2cccnc2COC)c2c3cc(ccc31)-c1cc(O)cc(c1)C[C@H](NC(=O)[C@H](C(C)C)N(C)C(=O)[C@H]1CCN(C(=O)C#CCN3CCN(C)CC3)C1)C(=O)N1CCC[C@H](N1)C(=O)OCC(C)(C)C2` [Compound A189], the concentration for half-maximal inhibition (IC50) under setting [1] is over 10 µM.
For `CC#CC(=O)N1CC[C@H](C(=O)N(C)[C@@H](C(=O)N[C@H]2Cc3cc(O)cc(c3)-c3ccc4c(c3)c(c(-c3cccnc3[C@H](C)OC)n4CC)CC(C)(C)COC(=O)[C@@H]3CCCN(N3)C2=O)C(C)C)C1` [Compound A198], the IC50 (read-out: H358 Cell Viability assay data (K-Ras G12C, IC50), 5-day treatment) was over 10 µM.
As for `CCn1c(-c2cncnc2)c2c3cc(ccc31)-c1cccc(c1)[C@@H](OC)[C@H](NC(=O)[C@H](C(C)C)N(C)C(=O)[C@H]1CCN(C(=O)C#CCN3CCOCC3)C1)C(=O)N1CCC[C@H](N1)C(=O)OCC(C)(C)C2` [Compound A208], the IC50 under setting [1] was over 10 µM.
The same measure, in the same setting: next, `CCn1c(-c2ccccc2CN(C)C)c2c3cc(ccc31)-c1cc(O)cc(c1)C[C@H](NC(=O)[C@H](C(C)C)N(C)Cc1ccc(NC(=O)/C=C/CN(C)C)cn1)C(=O)N1CCC[C@H](N1)C(=O)OCC(C)(C)C2` [Compound A213]: over 10 µM; `CCn1c(-c2ccccc2CCOC)c2c3cc(ccc31)-c1cc(O)cc(c1)C[C@H](NC(=O)[C@H](C(C)C)N(C)C(=O)c1ccc(NC(=O)/C=C/CN(C)C)nc1)C(=O)N1CCC[C@H](N1)C(=O)OCC(C)(C)C2` [Compound A218]: over 10 µM.
Turning to `CCn1c(-c2ccccc2CCOC)c2c3cc(ccc31)-c1cc(O)cc(c1)C[C@H](NC(=O)[C@H](C(C)C)N(C)C(=O)c1ccc(NC(=O)/C=C/CN(C)C)cn1)C(=O)N1CCC[C@H](N1)C(=O)OCC(C)(C)C2` [Compound A224], the IC50 under setting [1] was over 10 µM.
Consider `C=CC(=O)N1CC[C@H](C(=O)Nc2ccccc2C(=O)N[C@H]2Cc3cc(O)cc(c3)-c3ccc4c(c3)c(c(-c3cnccc3COC)n4CC)CC(C)(C)COC(=O)[C@@H]3CCCN(N3)C2=O)C1` [Compound A229], for which, under setting [1], the IC50 was over 10 µM.
On the same count and under the same terms, next, `C=CC(=O)N1CC[C@H](C(=O)N(C)[C@H](C(=O)N(C)[C@H]2Cc3cc(O)cc(c3)-c3ccc4c(c3)c(c(-c3cccnc3COC)n4CC)CC(C)(C)COC(=O)[C@@H]3CCCN(N3)C2=O)C(C)C)C1` [Compound A230]: over 10 µM.
Same read-out and setting: to `C=CC(=O)N1CC[C@H](C(=O)N(C)[C@H](C(=O)N[C@H]2Cc3cc(OC4O[C@H](CO)[C@@H](O)[C@H](O)[C@H]4O)cc(c3)-c3ccc4c(c3)c(c(-c3cccnc3COC)n4CC)CC(C)(C)COC(=O)[C@@H]3CCCN(N3)C2=O)C(C)C)C1` (some centres unmarked) [Compound A234] belongs over 10 µM; to `C=CC(=O)N1CC[C@H](C(=O)N(C)[C@H](C(=O)N[C@H]2CN(C)C(=O)Cc3ccc4c(c3)c(c(-c3cccnc3COC)n4CC)CC(C)(C)COC(=O)[C@@H]3CCCN(N3)C2=O)C(C)C)C1` [Compound A239], over 10 µM; to `C=CC(=O)N1CC[C@H](C(=O)N(C)[C@H](C(=O)N[C@H]2C[C@H]3CN(CCO3)c3ccc4c(c3)c(c(-c3cccnc3COC)n4CC)CC(C)(C)COC(=O)[C@@H]3CCCN(N3)C2=O)C(C)C)C1` [Compound A240], over 10 µM.
Turning to `C=CC(=O)N1CC[C@H](C(=O)N(C)[C@H](C(=O)N[C@H]2Cc3cc(O)cc(c3)-c3ccc4nc(-c5cccnc5[C@H](C)OC)n(c4c3)CC(C)(C)COC(=O)[C@@H]3CCCN(N3)C2=O)C(C)C)C1` [Compound A242], the half-maximal inhibitory concentration (IC50) under setting [1] is over 10 µM.
As for `C=CC(=O)N1CC[C@H](C(=O)N(C)[C@H](C(=O)N[C@H]2Cc3cc(O)cc(c3)-c3ccc4nc(-c5cccnc5COC)c(n4c3)CC(C)(C)COC(=O)[C@@H]3CCCN(N3)C2=O)C(C)C)C1` [Compound A243], the 50% inhibitory concentration (IC50) under setting [1] was over 10 µM.
On to `CCn1c(-c2cccnc2[C@H](C)OC)c2c3cc(ccc31)-c1cc(O)cc(c1)C[C@H](NC(=O)[C@H](C(C)C)N(C)C(=O)[C@H]1CCN(C(=O)C#C[C@@H]3CCCN3C)C1)C(=O)N1CCC[C@H](N1)C(=O)OCC(C)(C)C2` [Compound A247], for which the IC50 under setting [1] is under 0.01 µM.
With `C=CC(=O)N1CC[C@H](C(=O)N(C)[C@H](C(=O)N[C@H]2CC3=NN=C(S3)c3ccc4c(c3)c(c(-c3cccnc3[C@H](C)OC)n4CC)CC(C)(C)COC(=O)[C@@H]3CCCN(N3)C2=O)C(C)C)C1` [Compound A248], under setting [1], the half-inhibitory concentration (IC50) is over 10 µM.
Take `C=CC(=O)Nc1ccc(C(=O)N(C)[C@H](C(=O)N[C@H]2Cc3cc(O)cc(c3)-c3ccc4c(c3)c(c(-c3cccnc3[C@H](C)OC)n4CC)CC(C)(C)COC(=O)[C@@H]3CCCN(N3)C2=O)C(C)C)cn1` [Compound A250]: under setting [1], the IC50 is under 0.01 µM.
With `CCn1c(-c2cccnc2[C@H](C)OC)c2c3cc(ccc31)-c1cc(O)cc(c1)C[C@H](NC(=O)C1CCCC1C(F)F)C(=O)N1CCC[C@H](N1)C(=O)OCC(C)(C)C2` (some centres unmarked) [Compound A254], under setting [1], the concentration for half-maximal inhibition (IC50) lay in the range of 0.1 to 1 µM.
`C=CC(=O)N1CC[C@H](C(=O)N(C)[C@H](C(=O)N[C@@H]2C(=O)N3CCC[C@H](N3)C(=O)OCC(C)(C)Cc3c(-c4cncnc4)n(CC)c4ccc(cc34)-c3cccc(c3)[C@H]2O)C(C)C)C1` [Compound A272]: under setting [1], the IC50 is over 10 µM.
Same read-out and setting: next, `C=CC(=O)N1CC[C@H](C(=O)N(C)[C@H](C(=O)N[C@@H]2C(=O)N3CCC[C@H](N3)C(=O)OCC(C)(C)Cc3c(-c4cncnc4)n(CC)c4ccc(cc34)-c3cccc(c3)[C@H]2OC)C(C)C)C1` [Compound A273]: over 10 µM; `C=CC(=O)N1CC[C@H](C(=O)N(C)[C@H](C(=O)N[C@H]2Cc3ncc(n3C)-c3ccc4c(c3)c(c(-c3cccnc3[C@H](C)OC)n4CC)CC(C)(C)COC(=O)[C@@H]3CCCN(N3)C2=O)C(C)C)C1` [Compound A276]: over 10 µM.
As for `C=CC(=O)N1CC[C@H](C(=O)N(C)[C@H](C(=O)N[C@H]2Cc3cc(O)cc(c3)-c3ccc4c(c3)c(c(-c3cccnc3[C@@H]3CCCO3)n4CC)CC(C)(C)COC(=O)[C@@H]3CCCN(N3)C2=O)C(C)C)C1` [Compound A281], under setting [1], the half-inhibitory concentration (IC50) was under 0.01 µM.
With `CCn1c(-c2cccnc2[C@H](C)OC)c2c3cc(ccc31)-c1csc(n1)C[C@H](NC(=O)[C@H](C(C)C)N(C)C(=O)N1CC3CC(C1)N3C)C(=O)N1CCC[C@H](N1)C(=O)OCC(C)(C)C2` [Compound A284], under setting [2], the concentration for half-maximal inhibition (IC50) lay within 0.1 to 1 µM.
On to `C=CC(=O)N1CC[C@H](C(=O)N(C)[C@H](C(=O)N[C@H]2Cc3nc(ns3)-c3ccc4c(c3)c(c(-c3cncnc3)n4CC)CC(C)(C)COC(=O)[C@@H]3CCCN(N3)C2=O)C(C)C)C1` [Compound A285], for which the IC50 under setting [1] was over 10 µM.
On the same count and under the same terms, next, `C=CC(=O)N1CC[C@H](C(=O)N(C)[C@H](C(=O)N[C@H]2Cc3nc(cs3)-c3ccc4c(c3)c(c(-c3cccnc3[C@H](C)OC)n4CC)CC(C)(C)CN(C)C[C@@H]3CCCN(N3)C2=O)C(C)C)C1` [Compound A287]: over 10 µM.
As for `C=CC(=O)N1CC[C@H](C(=O)N(C)[C@H](C(=O)N[C@H]2Cc3nc(cs3)-c3ccc4c(c3)c(c(-c3cccnc3[C@H](C)OC)n4CC)CC(C)(C)CCC[C@@H]3CCCN(N3)C2=O)C(C)C)C1` [Compound A288], under setting [1], the IC50 was over 10 µM.
